Reference: PMC12053652, “Transport and inhibition mechanisms of human creatine transporter” (Cell Discovery, 2025)

T1: human creatine transporter (CRT) (Homo sapiens, UniProt P48029)
T1 construct: gene SLC6A8; full-length wild-type
T1 sequence (P48029 1-635): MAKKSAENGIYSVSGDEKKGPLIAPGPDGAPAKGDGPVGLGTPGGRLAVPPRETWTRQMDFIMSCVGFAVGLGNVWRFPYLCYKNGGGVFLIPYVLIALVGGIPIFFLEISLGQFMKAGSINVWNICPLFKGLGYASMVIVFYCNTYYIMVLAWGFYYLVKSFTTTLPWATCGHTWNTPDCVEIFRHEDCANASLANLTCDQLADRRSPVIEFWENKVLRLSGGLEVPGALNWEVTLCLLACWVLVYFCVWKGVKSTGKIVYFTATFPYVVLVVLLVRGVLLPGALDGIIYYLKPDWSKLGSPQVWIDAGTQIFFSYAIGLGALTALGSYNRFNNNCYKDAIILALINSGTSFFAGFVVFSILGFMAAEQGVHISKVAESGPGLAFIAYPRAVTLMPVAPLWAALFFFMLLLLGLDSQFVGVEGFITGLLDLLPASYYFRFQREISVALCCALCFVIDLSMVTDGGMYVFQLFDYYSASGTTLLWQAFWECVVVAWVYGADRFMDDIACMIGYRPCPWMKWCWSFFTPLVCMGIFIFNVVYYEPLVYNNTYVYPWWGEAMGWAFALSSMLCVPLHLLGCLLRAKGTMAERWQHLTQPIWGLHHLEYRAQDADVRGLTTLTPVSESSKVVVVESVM

B1: human creatine transporter (CRT) (Homo sapiens) (protein)
chain: T1 sequence (P48029 1-635)
notes: full-length wild-type

What was measured:
[1] = target: T1, human creatine transporter (CRT); experiment: cryo-EM structure ([…] Å); IC50 from […]creatine uptake inhibition in HEK293 cells; assay type: cell-based
[2] = substrate: CN(CC(=O)O)C(=N)N; experiment: cells, lysate or membranes; assay type: cell-based, Homo sapiens; conditions: Na+ and Cl- (Na+[…] and Cl- in the structure) central binding site; Tyr148, Ser417, Ala69, Phe315, Gly73; guanidine group surrounded by Phe68, Tyr148, Phe315; contacts Na+[…]

Row | Molecule | IC50 [1] [µM] | Km [2] [µM]
1 | N=C(N)NCCC(=O)O [RGX, RGX-202] | 53 | 
2 | B1 |  | 106.3
